Reference: patent US7671085B2, “Non-steroidal farnesoid X receptor modulators and methods for the use thereof” (The Salk Institute for Biological Studies, priority 2002, dated 2010)
“Also recorded” adds a separate entry of the source.

Biological target: T1, FXR (Homo sapiens, UniProt Q96RI1)
T1 construct: using a full length FXR on a natural response element; expressed in transfected cells
T1 sequence (Q96RI1 1-486): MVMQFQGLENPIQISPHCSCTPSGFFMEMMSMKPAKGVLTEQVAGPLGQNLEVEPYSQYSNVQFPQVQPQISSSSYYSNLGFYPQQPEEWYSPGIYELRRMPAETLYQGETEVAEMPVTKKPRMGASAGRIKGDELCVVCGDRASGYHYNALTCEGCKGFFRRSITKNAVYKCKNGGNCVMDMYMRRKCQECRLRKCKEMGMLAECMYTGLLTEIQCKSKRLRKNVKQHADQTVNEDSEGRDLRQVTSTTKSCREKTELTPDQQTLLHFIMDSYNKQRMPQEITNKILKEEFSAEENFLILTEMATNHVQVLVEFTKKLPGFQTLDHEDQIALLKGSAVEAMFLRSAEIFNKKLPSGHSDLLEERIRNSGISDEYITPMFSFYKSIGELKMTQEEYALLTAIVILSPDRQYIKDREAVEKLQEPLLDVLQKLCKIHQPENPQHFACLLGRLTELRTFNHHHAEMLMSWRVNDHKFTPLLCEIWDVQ
Assay: cell-based FXR transcription assay, FXR responsive promoter linked to luciferase reporter
Details: for RE^a / EC50: cell-based FXR reporter assay; for RE^a: footnote a not given; for FXR activation, in words: cell-based reporter assay, SAR discussion; for EC50: determined with Prism 3.0
Excerpt: In addition to ensuring that only cell permeable compounds were selected for further optimization, this approach allows for the detection of FXR activation in a natural system (i.e., correct folding of the protein and in the presence of a complete compliment of co-activators and co-repressors).
The feasibility of creating high throughput screens (HTS) for ORs was explored using FXR as a candidate orphan receptor (OR) with a known activator, chenodeoxycholic acid (CDCA) as a ligand. The screen is based on the co-transfection of a full-length receptor with the reporter vector containing a natural hormone response element under a minimal eukaryotic promoter. […] Using this 384-well format, the high throughput screening (HTS) approach to FXR as a candidate OR was employed. […] A central question in the feasibility studies is whether this library is suitable for screening for nuclear receptor ligands. Samples of this library were first reformatted into a 384-well format and then subjected to the FXR cell-based assays described above and assessed for FXR-mediated transcriptional activity. Cells were exposed to approximately 10 μM of sample for 18 hrs prior to washing and luciferase analysis.
EC50 values were determined with Prism 3.0 software via the activity of the subject compound in the previously described cell based assay.

Row | RE^a | FXR activation, in words | EC50 [nM] | SMILES
1 | 0.70 | – | – | COC(=O)/C=C/c1cccc(N(Cc2ccc(/C=C/c3cccc(C(F)(F)F)c3)cc2)C(=O)C(C)C)c1 [Compound 187]
2 | 1.48 | excellent activity | – | COC(=O)/C=C/c1cccc(N(Cc2ccc(-c3ccc(C)cc3)cc2)C(=O)C(C)C)c1 [Compound 236]
3 | 0.27 | only marginal efficacy | – | COC(=O)C=Cc1cccc(N(Cc2ccc(C=CC(=O)OC(C)(C)C)cc2)C(=O)NCc2ccccc2)c1 [Compound 146]
4 | 1.33 | excellent activity | – | COC(=O)/C=C/c1cccc(N(Cc2ccc(/C=C/c3cccc(F)c3)cc2)C(=O)C(C)C)c1 [Compound 202]
5 | 0.31 | – | – | COC(=O)/C=C/c1cccc(N(Cc2ccc(/C=C/c3cccc(C(F)(F)F)c3)cc2)C(=O)NC(C)C)c1 [Compound 188]
6 | 0.10 | – | 3570 | COC(=O)/C=C/c1cccc(N(Cc2ccc(/C=C/c3ccc(C)cc3)cc2)C(=O)NC(C)C)c1 [Compound 176]
7 | 1.28 | excellent activity | – | COC(=O)/C=C/c1cccc(N(Cc2ccc(-c3cccc(OC)c3)cc2)C(=O)C(C)C)c1 [Compound 224]
8 | 1.38 | – | – | COC(=O)/C=C/c1cccc(N(Cc2ccc(/C=C/c3ccccc3)cc2)C(=O)NC(C)C)c1 [Compound 200]
9 | 0.59 | – | – | COC(=O)/C=C/c1cccc(N(Cc2ccc(-c3ccc(C(C)(C)C)cc3)cc2)C(=O)C(C)C)c1 [Compound 263]
10 | 1.64 | – | – | COC(=O)/C=C/c1cccc(N(Cc2ccc(-c3ccc(F)c(Cl)c3)cc2)C(=O)C(C)C)c1 [Compound 248]
11 | 1.33 | excellent activity | – | COC(=O)/C=C/c1cccc(N(Cc2ccc(/C=C/c3ccccc3)cc2)C(=O)C(C)C)c1 [Compound 198]
12 | 1.17 | excellent activity | – | COC(=O)/C=C/c1cccc(N(Cc2ccc(/C=C/c3ccccc3F)cc2)C(=O)C(C)C)c1 [Compound 193]
13 | 0.15 | – | 216 | COC(=O)/C=C/c1cccc(N(Cc2ccc(/C=C/c3c(Cl)cccc3Cl)cc2)C(=O)NC(C)C)c1 [Compound 179]
14 | 1.96 | – | – | COC(=O)/C=C/c1cccc(N(Cc2ccc(/C=C/C(=O)OC(C)(C)C)cc2)C(=O)c2ccccc2)c1 [Compound 143]
15 | 0.28 | – | – | COC(=O)/C=C/c1cccc(N(Cc2ccc(-c3ccccc3OC)cc2)C(=O)C(C)C)c1 [Compound 219]
16 | 1.19 | excellent activity | 120 | COC(=O)/C=C/c1cccc(N(Cc2ccc(/C=C/c3ccc(F)cc3)cc2)C(=O)C(C)C)c1 [Compound 205]

The next lines start with the molecule.

Row | SMILES | RE^a | FXR activation, in words | EC50 [nM]
17 | COC(=O)/C=C/c1cccc(N(Cc2ccc(-c3cccc(C)c3)cc2)C(=O)C2CCCCC2)c1 [Compound 238] | 1.43 | excellent activity | –
18 | COC(=O)C=Cc1cccc(N(Cc2ccc(C=CC(=O)OC(C)(C)C)cc2)C(=O)C2CCC2)c1 [Compound 141] | 1.84 | excellent activity | –
19 | COC(=O)/C=C/c1cccc(N(Cc2cccc(OC)c2)C(=O)C2CCCCC2)c1 [Compound 115] | 0.11 | – | –
20 | COC(=O)C=Cc1cccc(N(Cc2ccc(C=Cc3cccc(F)c3)cc2)C(=O)C2CCCCC2)c1 [Compound 201] | 1.36 | excellent activity; also recorded: among the most active | –
21 | COC(=O)/C=C/c1cccc(N(Cc2ccc(/C=C/c3c(Cl)cccc3Cl)cc2)C(=O)C2CCCCC2)c1 [Compound 177] | 0.12 | excellent activity | –
22 | COC(=O)C=Cc1cccc(N(Cc2ccc(C=CC(=O)OC(C)(C)C)cc2OS(C)(=O)=O)C(=O)C2CCCCC2)c1 [Compound 166] | 0.18 | – | –
23 | COC(=O)/C=C/c1cccc(N(Cc2ccc(-c3cccc(OC)c3)cc2)C(=O)C2CCCCC2)c1 [Compound 223] | 1.51 | – | –
24 | COC(=O)C=Cc1cccc(N(Cc2ccc(C=CC(=O)OC(C)(C)C)cc2)C(=O)C2CC2)c1 [Compound 140] | 1.68 | – | –
25 | COC(=O)C=Cc1cccc(N(Cc2ccc3c(c2OC)OC(C)(C)C(O)C3Sc2ccccc2)C(=O)c2ccccc2)c1 (stereo not shown) [Compound 98] | – | did not improve the activity | –
26 | COC(=O)/C=C/c1cccc(N(Cc2ccc(-c3cc(Cl)ccc3OC)cc2)C(=O)NC(C)C)c1 [Compound 243] | 0.17 | – | –
27 | COC(=O)C=Cc1cccc(N(Cc2ccc(C=CC(=O)OC(C)(C)C)cc2)C(=O)C2CCCC2)c1 [Compound 142] | 2.16 | excellent activity | –
28 | COC(=O)C=Cc1cccc(N(Cc2ccc(C=CC(=O)OC(C)(C)C)cc2OC(C)=O)C(=O)C2CCCCC2)c1 [Compound 164] | 0.16 | – | –
29 | COC(=O)/C=C/c1cccc(N(Cc2ccc(-c3cc(Cl)cc(Cl)c3)cc2)C(=O)NC(C)C)c1 [Compound 222] | 0.10 | – | < 10000
30 | COC(=O)/C=C/c1cccc(N(Cc2ccc3c(c2OC)OC(C)(C)C2C3C2(Cl)Cl)C(=O)c2ccccc2)c1 (stereo not shown) [Compound 102] | 0.64 | – | –
31 | COC(=O)C=Cc1cccc(N(Cc2ccc(C=Cc3ccc(OC)cc3)cc2)C(=O)C2CCCCC2)c1 [Compound 122] | 1.67 | – | –
32 | COC(=O)C=Cc1cccc(N(Cc2ccc(C=CC(=O)NC(C)(C)C)cc2)C(=O)C2CCCCC2)c1 [Compound 155] | 1.65 | – | > 1000
33 | COC(=O)/C=C/c1cccc(N(Cc2ccc3c(c2OC)OC(C)(C)C=C3)S(=O)(=O)c2ccc(C)cc2)c1 [Compound 82] | – | inactive | –
34 | COC(=O)CCc1cccc(N(Cc2ccc(/C=C/C(=O)OC(C)(C)C)cc2)C(=O)C2CCCCC2)c1 [Compound 139] | RE^a = 1.38 | only a two-fold decrease in potency | –

Row | SMILES | RE^a | FXR activation, in words | EC50 [nM]
35 | COC(=O)C=Cc1cccc(N(Cc2ccc(C=Cc3ccc(F)cc3)cc2)C(=O)C2CCCCC2)c1 [Compound 204] | 0.53 | excellent activity; also recorded: among the most active | –
36 | COC(=O)C=Cc1cccc(N(Cc2ccc(-c3ccc(C(C)=O)s3)cc2)C(=O)C2CCCCC2)c1 [Compound 129] | 1.48 | – | –
37 | COC(=O)/C=C/c1cccc(N(Cc2ccc(-c3ccc(OC)cc3)cc2)C(=O)NC(C)C)c1 [Compound 231] | 1.18 | – | –
38 | COC(=O)/C=C/c1cccc(N(Cc2ccc(-c3ccc(C)cc3)cc2)C(=O)NC(C)C)c1 [Compound 237] | 0.80 | – | –
39 | COC(=O)/C=C/c1cccc(N(Cc2ccc3c(c2OC)OC(C)(C)C=C3)C(=S)NCc2ccccc2)c1 [Compound 84] | – | inactive | –
40 | COC(=O)/C=C/c1cccc(N(Cc2ccc3c(c2OC)OC(C)(C)C=C3)C(=O)C2CCCCC2)c1 [Compound 65] | 0.40 | – | 3.58
41 | CC(C)(C)OC(=O)C=Cc1ccc(CN(C(=O)C2CCCCC2)c2cccc(C=CC(N)=O)c2)cc1 [Compound 135] | 0.50 | marked decline in potency | –
42 | COC(=O)C=Cc1cccc(N(Cc2ccc(-c3ccc(C)s3)cc2)C(=O)C2CCCCC2)c1 [Compound 128] | 1.78 | – | –
43 | COC(=O)C=Cc1cccc(N(Cc2ccc(C=CC(=O)OC(C)C)cc2)C(=O)C2CCCCC2)c1 [Compound 152] | 1.97 | – | –
44 | COC(=O)/C=C/c1cccc(N(Cc2ccc(-c3cc(Cl)ccc3OC)cc2)C(=O)C2CCCCC2)c1 [Compound 241] | 1.16 | – | –
45 | CC(C)(C)OC(=O)C=Cc1ccc(CN(C(=O)C2CCCCC2)c2cccc(C=CCOc3ccccc3)c2)cc1 [Compound 138] | 0.45 | – | –
46 | CNC(=O)/C=C/c1cccc(N(Cc2ccc3c(c2OC)OC(C)(C)C=C3)C(=O)C2CC2)c1 [Compound 38] | – | inactive | –
47 | COC(=O)C=Cc1cccc(N(Cc2ccc(C=Cc3c(F)cccc3F)cc2)C(=O)C2CCCCC2)c1 [Compound 189] | 0.94 | excellent activity | –
48 | COC(=O)C=Cc1cccc(N(Cc2ccc3c(c2OC)OC(C)(C)C(O)C3O)C(=O)c2ccccc2)c1 (stereo not shown) [Compound 94] | – | did not improve the activity | –
49 | COC(=O)/C=C/c1cccc(N(Cc2ccc3c(c2OC)OC(C)(C)[C@@H](O)[C@H]3O)C(=O)c2ccccc2)c1 (relative stereo) [Compound 93] | – | did not improve the activity | –
50 | COC(=O)C=Cc1cccc(N(Cc2ccc(C=CC(=O)OC(C)(C)C)cc2O)C(=O)C2CCCCC2)c1 [Compound 161] | 0.12 | – | –
51 | COC(=O)/C=C/c1cccc(NC(=O)C2CCCCC2)c1 [Compound 132] | 0.09 | – | –
